The target of this test is Acetylcholinesterase (Homo sapiens, UniProt P22303).
Acetylcholinesterase, sequence (P22303 whole entry): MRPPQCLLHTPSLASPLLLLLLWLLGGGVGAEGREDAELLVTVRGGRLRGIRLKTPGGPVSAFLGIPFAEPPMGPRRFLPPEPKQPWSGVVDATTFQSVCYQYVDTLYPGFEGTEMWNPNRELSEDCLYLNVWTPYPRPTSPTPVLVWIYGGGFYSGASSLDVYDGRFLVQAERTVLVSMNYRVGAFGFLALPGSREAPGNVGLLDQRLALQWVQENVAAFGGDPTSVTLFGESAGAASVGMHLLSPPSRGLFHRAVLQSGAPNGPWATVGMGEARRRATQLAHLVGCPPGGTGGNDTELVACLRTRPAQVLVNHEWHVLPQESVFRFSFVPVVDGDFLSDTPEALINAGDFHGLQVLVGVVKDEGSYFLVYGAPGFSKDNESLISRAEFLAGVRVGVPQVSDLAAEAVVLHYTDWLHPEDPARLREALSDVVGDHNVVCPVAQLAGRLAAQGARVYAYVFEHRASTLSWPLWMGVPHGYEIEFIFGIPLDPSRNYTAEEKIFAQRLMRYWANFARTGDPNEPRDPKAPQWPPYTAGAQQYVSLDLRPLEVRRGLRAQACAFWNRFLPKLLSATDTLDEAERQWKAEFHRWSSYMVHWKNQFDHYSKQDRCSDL
Consider `c1ccc2c(NCCCCCCCCCNc3c4c(nc5ccccc35)CCCC4)ccnc2c1`, for which the half-inhibitory concentration (IC50) (usually the concentration at which inhibition is half-maximal) amounted to 38 nM. In turn, `O=C(OC1Cc2c(O)cc(O)cc2OC1c1ccc(O)c(O)c1)c1cc(O)c(O)c(O)c1` (stereo not given) showed an IC50 of 28000 nM. The result for `COc1ccc(C(=O)N(CCC2CCN(Cc3ccccc3)CC2)c2ccccc2)cc1` reads 590 nM. The result for `COc1ccc2c(c1OC)C(=O)CC2CCC1CCN(Cc2ccccc2)CC1` (stereo not given) reads 8 nM; that for `COC(=O)Nc1cccc2n1cc(-c1ccc(OC(=O)N(C)C)cc1)[n+]2C`, 1100 nM. The result for `COc1ccc(N(CCC2CCN(Cc3ccccc3)CC2)C(C)=O)cc1` reads 700 nM; that for `COc1cc(N)c(Cl)cc1C(=O)NC1CCN(Cc2ccccc2)CC1` [CLEBOPRIDE], 890 nM. For `O=C(CCc1c[nH]c2ccccc12)NCCCCCNc1c2c(nc3ccccc13)CCCC2`, it took 70 nM to reach half-maximal inhibition (IC50). To `Cc1cc(-c2ccc(Cl)cc2)nnc1NCCN1CCCCC1` belongs 1300 nM. To `O=C(Nc1cccc2c1C(=O)N(CCC1CCN(Cc3ccccc3)CC1)C2=O)c1ccccc1` belongs 340 nM; to `CCCCC1(O)c2nc3ccccc3c(N)c2CC1C` (stereo not given), 91000 nM.

As to `O=C1CCCCN1CCC1CCN(Cc2ccccc2)CC1`, inhibition was half-maximal at 270 nM (IC50).

Molecule `CC(=O)Nc1cccc2n1cc(-c1cccc(OC(=O)N(C)C)c1)[n+]2C` came in with an IC50 of 2500 nM.

The molecule `CCCCCCNC(=O)Oc1ccc2c(c1)C1CCN(CCC)C1C2` (stereo not given) showed an IC50 of 546 nM. To `Cc1ccc2nc3c(c(Nc4ccccc4)c2c1)CCCC3` belongs 3700 nM; to `CCCCCCNC(=O)Oc1ccc2c(c1)[C@@H]1CCN(CC)[C@@H]1C2`, 208 nM. For `O=C(CCC1CCN(Cc2ccccc2)CC1)c1ccc2c(c1)CCN2`, the IC50 is 20 nM. To `Nc1c2c(nc3ccccc13)-c1ccccc1C2` belongs 350 nM; to `CC(=O)N(C)CCC1CCN(Cc2ccccc2)CC1`, 660 nM; to `O=C(Cc1c[nH]c2ccc(Br)cc12)NCCCCCCCNc1c2c(nc3cc(Cl)ccc13)CCCC2`, 0.6 nM. Consider `COc1cccc(CN2CCC(CCC(=O)c3ccc4c(c3)NCCCC4)CC2)c1`, for which the half-maximal inhibitory concentration (IC50) was found to be 847 nM. The result for `FC(F)(F)c1cc(-c2ccccc2)nnc1NCCN1CCOCC1` reads 740000 nM.

In turn, `NCCCCCCCCCCNc1c2c(nc3ccccc13)CCCC2` showed a concentration for half-maximal inhibition (IC50) of 147 nM.

In the case of `O=C(CCC1CCN(Cc2ccccc2)CC1)c1ccc2c(c1)CCCCN2`, 125 nM corresponded to half-maximal inhibition (IC50). The molecule `CN1CCC(CCN2C(=O)c3ccc([N+](=O)[O-])cc3C2=O)CC1` yielded an IC50 of 6800 nM. For the molecule `CN(CCCNC(=O)CCc1c[nH]c2ccccc12)CCCNc1c2c(nc3ccccc13)CCCC2`, the midpoint of inhibition, the IC50, lay at 147 nM. `CC(=O)Nc1ccc2c(c1)C(=O)N(CCC1CCN(Cc3ccccc3)CC1)C2=O` had an IC50 of 2.8 nM.

Molecule `CNC(=O)Oc1cccc(CN(C)CCCCCCCOc2ccc3c(c2)CC/C(=C/c2cc(O)c(O)c(O)c2)C3=O)c1` showed a half-inhibitory concentration (IC50) of 4.94 nM. The result for `O=C(CCC1CCN(Cc2ccccc2Cl)CC1)c1ccc2c(c1)CCN2` reads 76 nM. The result for `N#Cc1ccc2[nH]cc(CCC(=O)NCCCCCCNc3c4c(nc5cc(Cl)ccc35)CCCC4)c2c1` reads 0.7 nM; that for `CN(CCOCCNC(=S)NC(=O)c1ccccc1)C1CCCCC1`, 13 nM; that for `Cc1cc(-c2ccccc2)nnc1NCCN1CCCCC1`, 5400 nM. In turn, `c1ccc(CN2CCC(CCNc3ccc(-c4ccccc4)nn3)CC2)cc1` showed a half-inhibitory concentration (IC50) of 120 nM. The result for `CN(CCOCCNC(=S)Nc1ccc(OC(F)(F)F)cc1)Cc1ccccc1` reads 1000 nM. To `Cc1cccc(CN2CCC(CCC(=O)c3ccc4c(c3)CCN4)CC2)c1` belongs 50 nM. In turn, `Nc1cc(-c2ccccc2)nnc1NCCN1CCOCC1` returned an IC50 of 270000 nM.

For the molecule `CCCCC1=C(C)Cc2c1nc1ccccc1c2N`, it took 25000 nM to reach half-maximal inhibition (IC50).

In turn, `O=C(NCCCCCCNc1c2c(nc3cc(Cl)ccc13)CCCC2)c1c[nH]c2ccccc12` came in with an IC50 of 33 nM. `c1ccc(-c2ccc(NCCCN3CCOCC3)nn2)cc1` registered an IC50 of 410000 nM.

`c1ccc2c(NCCCCCCCNc3ccncc3)c3c(nc2c1)CCCC3` gave an IC50 of 12.8 nM. Turning to `CCC(=O)N(CCC1CCN(Cc2ccccc2)CC1)c1ccccc1`, the half-maximal inhibitory concentration (IC50) amounted to 830 nM. To `Cc1cc(C2(c3cc(C)c(O)c(C)c3)CCCCC2)cc(C)c1O` belongs 15000 nM. To `O=C(CCC1CCN(Cc2ccc(F)cc2)CC1)c1ccc2c(c1)CCN2` belongs 89 nM; to `CN1CCc2cc(C(=O)CCC3CCN(Cc4ccccc4)CC3)ccc21`, 10 nM; to `CCN1CCc2cc(C(=O)CCC3CCN(Cc4ccccc4)CC3)ccc21`, 11 nM. `O=C(Nc1ccccc1)c1ccc2c(c1)C(=O)N(CCC1CCN(Cc3ccccc3)CC1)C2=O` yielded a half-inhibitory concentration (IC50) of 2.2 nM. The result for `Fc1ccc2c(NCCCCCCNc3c4c(nc5cc(F)ccc35)CCCC4)c3c(nc2c1)CCCC3` reads 0.9 nM; that for `O=C(c1ccc([N+](=O)[O-])cc1)N(CCC1CCN(Cc2ccccc2)CC1)c1ccccc1`, 5.4 nM. To `CN(C)CCCCCCCNc1c2c(nc3ccccc13)CCCC2` belongs 52 nM. As for `CC1=C(C)c2nc3ccccc3c(N)c2C1`, the IC50 stood at 3500 nM. Molecule `CNC(=O)Oc1cccc(-c2cn3ccccc3[n+]2C)c1` came in with a concentration for half-maximal inhibition (IC50) of 350 nM. The result for `c1ccc(-c2cc(-c3ccccc3)c(NCCN3CCOCC3)nn2)cc1` reads 260000 nM; that for `O=C1c2ccc([N+](=O)[O-])cc2C(=O)N1CC1CCN(Cc2ccccc2)CC1`, 3000 nM; that for `O=C1c2ccccc2CN1CCC1CCN(Cc2ccccc2)CC1`, 98 nM. To `Fc1ccc2c(NCCCCCCCNc3c4c(nc5cc(F)ccc35)CCCC4)c3c(nc2c1)CCCC3` belongs 0.6 nM; to `c1ccc(NCCCCCCCCCCCCNc2c3c(nc4ccccc24)CCCC3)cc1`, 261 nM. With `COc1ccc2c(c1)CCCc1c-2nc2ccccc2c1N`, the IC50 is 68800 nM. For `CCCCCCNC(=O)Oc1cccc(CN(CC)CCCOc2ccc3c(=O)c4ccccc4oc3c2)c1`, the half-maximal inhibitory concentration (IC50) stood at 160 nM.

`CC(=O)N(C)c1cccc2n1cc(-c1ccc(OC(=O)N(C)C)cc1)[n+]2C` came in with a half-inhibitory concentration (IC50) of 24500 nM.

As for `CCCCCCCNC(=O)Oc1ccc2c(c1)[C@@H]1CCN(CC)[C@@H]1C2`, 381 nM corresponded to half-maximal inhibition (IC50). Molecule `CCCCNC(=O)Oc1cccc(CN(C)CCCOc2ccc3c(=O)ccoc3c2)c1` showed an IC50 of 250 nM. Molecule `O=C(CCC1CCN(Cc2ccccc2)CC1)c1ccc2c(c1)NCC2` registered an IC50 of 113 nM. To `COC(=O)Nc1ccc2n(c1)cc(-c1ccccc1)[n+]2C` belongs 50000 nM; to `c1ccc(-c2ccc(NCCCN3CCc4ccccc4C3)nn2)cc1`, 35000 nM. The molecule `CCN(CCOCCNC(=O)NCc1ccccc1)CC1CCCCC1` came in with an IC50 of 10000 nM.

Take `CCCCCCNC(=O)Oc1cccc(CN(C)CCCOc2ccc3c(=O)c4cccnc4oc3c2)c1`: it took 42 nM to reach half-maximal inhibition (IC50). `CN(CCOCCNC(=O)Nc1ccc([N+](=O)[O-])cc1)Cc1ccccc1` registered a 50% inhibitory concentration (IC50) of 2300 nM.

Consider `CN(CCOCCNC(=S)NC(=O)c1ccc2c(c1)C(=O)c1ccccc1-2)Cc1ccccc1`, for which the IC50 is 30 nM.

As for `CCCCCCCNC(=O)Oc1ccc2c(c1)[C@]1(C)CCN(CC)[C@@H]1C2`, the IC50 turned out to be 58 nM. In the case of `CCCCCCNC(=O)Oc1cccc(CN(CCCOc2ccc3c(=O)c4ccccc4oc3c2)C(C)C)c1`, half-maximal inhibition (IC50) was put at 170 nM.

The values above are taken from ChEMBL document CHEMBL1155460, “Prediction of acetylcholinesterase inhibitors and characterization of correlative molecular descriptors by machine learning methods” (Eur J Med Chem, 2010).
